Test results as given in the NIST ThermoML archive (doi:10.1016/j.jct.2005.07.009).

Columns and labels:
[1] = xn = mol fraction of the nth substance listed; conditions: 298.15 K, 101 kPa, Liquid, Vibrating tube method
[2] = excess molar enthalpy (molar enthalpy of mixing); xn = mol fraction of the nth substance listed; conditions: 298.15 K, 101 kPa, Liquid

BrCCCCBr [1,4-dibromobutane] + CCOC(C)=O
Conditions	excess molar enthalpy [kcal/mol]	mass density [kg/m3]
[1], x2 = 0.0713	–	1763.64
[1], x2 = 0.1362	–	1711.83
[1], x2 = 0.2057	–	1654.85
[1], x2 = 0.2657	–	1604.71
[1], x2 = 0.3922	–	1495.44
[1], x2 = 0.4539	–	1440.32
[1], x2 = 0.5154	–	1384.15
[1], x2 = 0.5749	–	1328.61
[1], x2 = 0.683	–	1224.74
[1], x2 = 0.7406	–	1167.52
[1], x2 = 0.7867	–	1121.03
[1], x2 = 0.8486	–	1057.13
[1], x2 = 0.9	–	1002.89
[1], x2 = 0.9494	–	949.81
[2], x2 = 0.0724	0.0259	–
[2], x2 = 0.1477	0.0417	–
[2], x2 = 0.2228	0.0516	–
[2], x2 = 0.2954	0.0559	–
[2], x2 = 0.3654	0.0562	–
[2], x2 = 0.4273	0.0538	–
[2], x2 = 0.4836	0.0497	–
[2], x2 = 0.5346	0.0447	–
[2], x2 = 0.5727	0.0394	–
[2], x2 = 0.6226	0.0329	–
[2], x2 = 0.6702	0.0265	–
[2], x2 = 0.7257	0.0205	–
[2], x2 = 0.7826	0.0143	–
[2], x2 = 0.8416	0.00927	–
[2], x2 = 0.8982	0.00521	–
[2], x2 = 0.9516	0.00241	–

BrCCCCBr [1,4-dibromobutane] + CCOC=O
Conditions	excess molar enthalpy [kcal/mol]	mass density [kg/m3]
[1], x2 = 0.0952	–	1765.32
[1], x2 = 0.1744	–	1716.81
[1], x2 = 0.2604	–	1660.33
[1], x2 = 0.3295	–	1611.72
[1], x2 = 0.4012	–	1557.95
[1], x2 = 0.4668	–	1505.48
[1], x2 = 0.5355	–	1446.96
[1], x2 = 0.5888	–	1398.87
[1], x2 = 0.6436	–	1346.56
[1], x2 = 0.6981	–	1291.4
[1], x2 = 0.7934	–	1186.14
[1], x2 = 0.9238	–	1023.59
[1], x2 = 0.9623	–	970.42
[2], x2 = 0.0799	0.0549	–
[2], x2 = 0.1652	0.0897	–
[2], x2 = 0.2469	0.118	–
[2], x2 = 0.3246	0.135	–
[2], x2 = 0.397	0.145	–
[2], x2 = 0.4607	0.149	–
[2], x2 = 0.5109	0.147	–
[2], x2 = 0.5179	0.148	–
[2], x2 = 0.5525	0.145	–
[2], x2 = 0.5649	0.143	–
[2], x2 = 0.5973	0.14	–
[2], x2 = 0.6082	0.137	–
[2], x2 = 0.6459	0.131	–
[2], x2 = 0.6929	0.121	–
[2], x2 = 0.7514	0.103	–
[2], x2 = 0.8051	0.0847	–
[2], x2 = 0.8598	0.0615	–
[2], x2 = 0.9121	0.0378	–
[2], x2 = 0.9614	0.0142	–

BrCCCCCBr [1,5-dibromopentane] + CCCC(=O)OCC
Conditions	excess molar enthalpy [kcal/mol]	mass density [kg/m3]
[1], x2 = 0.059	–	1646.96
[1], x2 = 0.1242	–	1594.68
[1], x2 = 0.1821	–	1548
[1], x2 = 0.238	–	1502.9
[1], x2 = 0.3008	–	1451.99
[1], x2 = 0.4202	–	1354.48
[1], x2 = 0.5373	–	1258.57
[1], x2 = 0.5953	–	1210.74
[1], x2 = 0.6536	–	1162.53
[1], x2 = 0.7109	–	1115.08
[1], x2 = 0.7685	–	1067.15
[1], x2 = 0.8314	–	1014.81
[1], x2 = 0.8895	–	966.17
[2], x2 = 0.0632	0.00545	–
[2], x2 = 0.1296	0.00906	–
[2], x2 = 0.1974	0.0117	–
[2], x2 = 0.2617	0.012	–
[2], x2 = 0.3247	0.0105	–
[2], x2 = 0.3843	0.00777	–
[2], x2 = 0.4396	0.00466	–
[2], x2 = 0.4909	0.000693	–
[2], x2 = 0.5367	-0.00239	–
[2], x2 = 0.5745	-0.00511	–
[2], x2 = 0.6072	-0.00657	–
[2], x2 = 0.6211	-0.00755	–
[2], x2 = 0.6798	-0.00937	–
[2], x2 = 0.7429	-0.0104	–
[2], x2 = 0.8114	-0.00944	–
[2], x2 = 0.878	-0.00696	–
[2], x2 = 0.9431	-0.00356	–

BrCCCCCBr [1,5-dibromopentane] + CCCCC(=O)OCC
Conditions	excess molar enthalpy [kcal/mol]	mass density [kg/m3]
[1], x2 = 0.0539	–	1645.46
[1], x2 = 0.1105	–	1595.11
[1], x2 = 0.1636	–	1548.32
[1], x2 = 0.2206	–	1498.77
[1], x2 = 0.3289	–	1405.86
[1], x2 = 0.3899	–	1354.43
[1], x2 = 0.4455	–	1307.95
[1], x2 = 0.5024	–	1260.98
[1], x2 = 0.5632	–	1211.27
[1], x2 = 0.5935	–	1186.69
[1], x2 = 0.6792	–	1117.97
[1], x2 = 0.7412	–	1068.93
[1], x2 = 0.803	–	1020.6
[1], x2 = 0.8672	–	970.91
[1], x2 = 0.9294	–	923.31
[2], x2 = 0.0537	0.00703	–
[2], x2 = 0.1124	0.012	–
[2], x2 = 0.1746	0.0158	–
[2], x2 = 0.2384	0.0178	–
[2], x2 = 0.3005	0.0179	–
[2], x2 = 0.3573	0.0158	–
[2], x2 = 0.4121	0.012	–
[2], x2 = 0.4619	0.00674	–
[2], x2 = 0.5075	0.00098	–
[2], x2 = 0.5483	-0.00344	–
[2], x2 = 0.5745	-0.00566	–
[2], x2 = 0.6374	-0.00863	–
[2], x2 = 0.7074	-0.01	–
[2], x2 = 0.7809	-0.00994	–
[2], x2 = 0.8572	-0.00848	–
[2], x2 = 0.9337	-0.00483	–
